Experiments:
P2Y12 receptor = target: T1, P2Y12 receptor (Homo sapiens, UniProt Q9H244); experiment: Example 4: VerifyNow P2Y12 assay, platelet reactivity in PRU; assay type: in vivo
T1 construct: from tissue; host or cells: platelets in whole blood of patients
Experimental: The study involved 12 patients who met the criteria of being 18-75 years of age, having coronary artery disease (CAD) documented by a previous MI or coronary revascularization, and taking 81 mg of aspirin daily. […] Use of non-steroidal anti-inflammatory agents was discouraged during study participation but not prohibited.
(§1) Each patient was administered a 30 μg/kg bolus of cangrelor followed immediately by a 2 hr infusion at a rate of 4.0 μg/kg/min. A loading dose of ticagrelor (180 mg) was given after 0.5 hr or 1.25 hr (n=6 for each). Blood for pharmacodynamic platelet function studies was taken after 0.5 or 1.25 hr (corresponding to the time of ticagrelor load, n=6 for each), and then at 1.75, 2, 2.25, 2.5, 2.75, 3, 4, and 5.25 hr. Patients were assigned randomly to receive either 6 (n=6) or 7 (n=6) doses of ticagrelor to be taken every 12 hours following the discontinuation of the infusion of cangrelor. On study day 5, each patient was administered a 30 μg/kg bolus of cangrelor followed immediately by a 2 hr infusion at a rate of 4.0 μg/kg/min. Blood for pharmacodynamic assessment was taken after 1 and 2 hr. Adverse events were queried throughout study participation that ended with a telephone interview performed on study day 10-12.
(§2) Pharmacodynamic assessment included light transmission aggregometry (LTA), VerifyNow® P2Y12 assay, vasodilator-stimulated phosphoprotein (VASP) index, and platelet activation measured with the use of flow cytometry. Assessment of LTA, VerifyNow®, and platelet activation with the use of flow cytometry was performed within 30 min of blood being taken. In the case of flow cytometry, samples were processed to fixation and then batched for analysis. For VASP, index samples were batched and processed as recommended by the vendor within 2 h of blood being taken. This approach limited the time from fixation of VASP index to flow analysis to less than 1 h.
(§3) LTA induced by 5 μM and 20 μM adenosine diphosphate (ADP) was quantified ex vivo (i.e. in non-adjusted platelet rich plasma). Platelet-poor plasma was set as 100% aggregation, and both maximal (peak) and terminal (at 300 s) aggregation were measured with a PAP4 aggregometer (BioData, Horsham, Pa.). VerifyNow® P2Y12 assay (Accumetrics Inc, San Diego, Calif.) that measures the effects of drugs on the P2Y12 receptor by activating platelets with prostaglandin El in addition to ADP was used in accordance with the instructions provided by the manufacturer. Platelet reactivity was expressed in P2Y12 reaction units (PRU). Activation of platelets was identified with the use of flow cytometry as previously described.^17. And to determine the VASP index, a commercially available kit (Diagnostica Stago, Inc, Parsippany NJ) was used. ^17 Schneider D J, Sobel B E. Streamlining the design of promising clinical trials: in-vitro testing of antithrombotic regimens and multiple agonists of platelet activation. Coron Artery Dis. 2009; 20:175-8.

platelets = experiment: Example 4: platelet activation measured by flow cytometry; assay type: in vivo, human; conditions: P-selectin expression, 1 μM ADP
Experimental: The study involved 12 patients who met the criteria of being 18-75 years of age, having coronary artery disease (CAD) documented by a previous MI or coronary revascularization, and taking 81 mg of aspirin daily. […] Prohibited concomitant medications included strong and potent CYP3A inhibitors, simvastatin and lovastatin at doses more than 40 mg/day, omeprazole or esomeprazole, and digoxin. Use of non-steroidal anti-inflammatory agents was discouraged during study participation but not prohibited.
as §1, §2, §3

[1] = Study Day 1, 1.75 h, Ticagrelor at 0.5 hr
[2] = Study Day 1, 1.75 h, Ticagrelor at 1.25 hr
[3] = Study Day 1, 2.0 h, Ticagrelor at 0.5 hr
[4] = Study Day 1, 2.0 h, Ticagrelor at 1.25 hr
[5] = Study Day 1, reference 0.5/1.25 h, All
[6] = Study Day 1, reference 0.5/1.25 h, Ticagrelor at 0.5 hr
[7] = Study Day 1, reference 0.5/1.25 h, Ticagrelor at 1.25 hr
[8] = Study Day 5, 1.0 h, Ticagrelor 6 doses
[9] = Study Day 5, 1.0 h, Ticagrelor 7 doses
[10] = Study Day 5, 2.0 h, Ticagrelor 6 doses
[11] = Study Day 5, 2.0 h, Ticagrelor 7 doses

T1 sequence (Q9H244 whole entry): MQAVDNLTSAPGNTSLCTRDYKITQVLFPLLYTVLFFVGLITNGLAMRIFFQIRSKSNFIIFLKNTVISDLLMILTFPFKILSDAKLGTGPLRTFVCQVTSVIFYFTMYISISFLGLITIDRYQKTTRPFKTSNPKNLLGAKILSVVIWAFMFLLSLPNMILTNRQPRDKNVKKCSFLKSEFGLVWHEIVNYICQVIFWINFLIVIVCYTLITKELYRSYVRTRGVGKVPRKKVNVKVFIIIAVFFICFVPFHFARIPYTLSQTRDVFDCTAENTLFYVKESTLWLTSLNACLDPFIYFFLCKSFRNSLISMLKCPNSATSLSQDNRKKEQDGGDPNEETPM

## CSCCNc1nc(SCCC(F)(F)F)nc2c1ncn2[C@@H]1O[C@H](COP(=O)(O)OP(=O)(O)C(Cl)(Cl)P(=O)(O)O)[C@@H](O)[C@H]1O [Cangrelor, cangrelor]
P2Y12 receptor; Study Day 1, 1.75 h, All
  VerifyNow IPR: 99 ± 1
  VerifyNow PRU: 3.8 ± 2.6 PRU
P2Y12 receptor; [1]
  VerifyNow IPR: 99 ± 1
  VerifyNow PRU: 3.8 ± 2.6 PRU
P2Y12 receptor; [2]
  VerifyNow IPR: 99 ± 1
  VerifyNow PRU: 3.7 ± 2.8 PRU
P2Y12 receptor; Study Day 1, 2.0 h, All
  VerifyNow IPR: 98 ± 3
  VerifyNow PRU: 6.4 ± 7.5 PRU
P2Y12 receptor; [3]
  VerifyNow IPR: 97 ± 2
  VerifyNow PRU: 6.9 ± 4.9 PRU
P2Y12 receptor; [4]
  VerifyNow IPR: 98 ± 4
  VerifyNow PRU: 5.9 ± 9.9 PRU
P2Y12 receptor; [5]
  VerifyNow IPR: 97 ± 3
  VerifyNow PRU: 7.3 ± 9.3 PRU
P2Y12 receptor; [6]
  VerifyNow IPR: 97 ± 4
  VerifyNow PRU: 8.8 ± 12 PRU
P2Y12 receptor; [7]
  VerifyNow IPR: 98 ± 3
  VerifyNow PRU: 5.8 ± 7.3 PRU
P2Y12 receptor; Study Day 5, 1.0 h, All
  VerifyNow IPR: 99 ± 1
  VerifyNow PRU: 3.3 ± 2 PRU
P2Y12 receptor; [8]
  VerifyNow IPR: 99 ± 1
  VerifyNow PRU: 2.8 ± 1.9 PRU
P2Y12 receptor; [9]
  VerifyNow IPR: 98 ± 1
  VerifyNow PRU: 3.9 ± 2.1 PRU
P2Y12 receptor; Study Day 5, 2.0 h, All
  VerifyNow IPR: 98 ± 3
  VerifyNow PRU: 4.5 ± 6.4 PRU
P2Y12 receptor; [10]
  VerifyNow IPR: 99 ± 1
  VerifyNow PRU: 2.4 ± 1.9 PRU
P2Y12 receptor; [11]
  VerifyNow IPR: 97 ± 3
  VerifyNow PRU: 6.5 ± 8.8 PRU
platelets; Study Day 1, 1.75 h, All
  Flow Cytometry IPR: 94 ± 5
  Flow Cytometry PR: 2.5 ± 1
platelets; [1]
  Flow Cytometry IPR: 96 ± 2
  Flow Cytometry PR: 2 ± 0.6
platelets; [2]
  Flow Cytometry IPR: 92 ± 7
  Flow Cytometry PR: 3 ± 1.1
platelets; Study Day 1, 2.0 h, All
  Flow Cytometry IPR: 89 ± 30
  Flow Cytometry PR: 3.8 ± 4.5
platelets; [3]
  Flow Cytometry IPR: 96 ± 2
  Flow Cytometry PR: 2.3 ± 0.8
platelets; [4]
  Flow Cytometry IPR: 83 ± 28
  Flow Cytometry PR: 5.3 ± 6.3
platelets; [5]
  Flow Cytometry IPR: 94 ± 4
  Flow Cytometry PR: 2.8 ± 1.2
platelets; [6]
  Flow Cytometry IPR: 94 ± 5
  Flow Cytometry PR: 3 ± 1.7
platelets; [7]
  Flow Cytometry IPR: 94 ± 3
  Flow Cytometry PR: 1.5 ± 0.5
platelets; Study Day 5, 1.0 h, All
  Flow Cytometry IPR: 92 ± 4
  Flow Cytometry PR: 4.1 ± 2.7
platelets; [8]
  Flow Cytometry IPR: 91 ± 3
  Flow Cytometry PR: 3.5 ± 1.4
platelets; [9]
  Flow Cytometry IPR: 93 ± 5
  Flow Cytometry PR: 4.7 ± 3.6
platelets; Study Day 5, 2.0 h, All
  Flow Cytometry IPR: 95 ± 3
  Flow Cytometry PR: 2.8 ± 1.3
platelets; [10]
  Flow Cytometry IPR: 93 ± 3
  Flow Cytometry PR: 2.7 ± 1.2
platelets; [11]
  Flow Cytometry IPR: 96 ± 2
  Flow Cytometry PR: 2.8 ± 1.5
